Results from patent US12384754B2, “Cocrystals of (1R,3S)-3-(5-cyano-4-phenyl-1,3-thiazol-2-ylcarbamoyl)cyclopentane carboxylic acid” (PALOBIOFARMA, S.L., priority 2020, dated 2025).
Like-named read-outs stand apart in the source and are kept apart here.

Assays:
[1] = Plasma pharmacokinetics / oral bioavailability after single IV and PO administration; format: in vivo; conditions: male SD rats; for F % (bioavailability): po 5 mg/Kg vs iv 1 mg/Kg
Experimental: The objective of this study was to investigate the plasma pharmacokinetics of differentes cocrystals obtained from (1R,3S)-3-(5-cyano-4-phenyl-1, 3-thiazol ylcarbamoyl) cyclopentane carboxylic acid, following a single intravenous (IV) and oral (PO) administration in male SD rats.
Animals were divided into two groups: Group 1 (IV: 1 mg/kg) and Group 2 (PO: 5 mg/kg). Animals in Group 1 and 2 were administered a solution of the different cocrystals of (1R,3S)-3-(5-cyano-4-phenyl-1,3-thiazol-2-ylcarbamoyl) cyclopentane carboxylic acid in normal saline. The blood samples were collected from set of three rats at each time point in labeled micro centrifuge tube containing K2EDTA solution as anticoagulant at Pre-dose, 0.083, 0.25, 0.5, 1, 2, 4, 8 and 24 hr (IV) and Pre-dose, 0.25, 0.5, 1, 2, 4, 6, 8 and 24 hr (PO). Plasma samples were separated by centrifugation of whole blood and stored below −70±10° C. until bioanalysis. All samples were processed for analysis by protein precipitation using acetonitrile and analyzed with fit-for-purpose LC-MS/MS method (LLOQ=1.00 ng/ml). Pharmacokinetic parameters were calculated using the non-compartmental analysis tool of Phoenix WinNonlin® (Version 6.3).

[2] = Hygroscopicity study by DVS (Dynamic Vapour Sorption); format: physicochemical; conditions: for moisture content, 15% RH / moisture content, 35% RH / moisture content, 55% RH / moisture content, 75% RH: DVS, 25° C.; for variation in the moisture content: at 75% RH
Experimental: Hygroscopicity study. The hygroscopicity of cocrystals was determined by DVS (Dynamic Vapour Sorption) with a Q5000 TA instrument. This is a gravimetric technique that measures the amount of water absorbed or desorbed by a sample at different relative humidities (RH). At each RH level, the sample mass must be allowed to reach gravimetric equilibrium (or surpass the time limit) before progressing to the next humidity level. Sorption and desorption isotherms were performed at 25° C. over a range of 0-95% RH. The sample was not previously dried, but it was exposed to 0% RH until reaching a stable weight before starting the DVS cycle. This equilibration step allows the elimination of the possible adsorbed humidity from the atmosphere. The relative humidity (RH) was controlled by a mixture of wet and dry nitrogen stream. The RH was held constant until the equilibrium had been obtained (constant weight) or until the maximum time has been reached, before changing the RH to the next level.

[3] = pKa / ΔpKa of free acid and cocrystal forming compounds; format: physicochemical
Text: Cocrystals are distinguished from salts because unlike salts, the components that co-exist in the cocrystal lattice with a defined stoichiometry interact nonionically. […] If this criterion is met, the API-coformer entity should be classified as a cocrystal. (Regulatory Classification of Pharmaceutical Co-Crystals Guidance for Industry, February 2018, http://www.fda.gov/Drugs/GuidanceComplianceRegulatotyInformation/Guidances/default.htm).

[4] = Comparative bioavailability assay in healthy volunteers; format: in vivo; conditions: for AUC0-t, MEAN ± SD / AUC0-t, geometric mean / AUC0-∞, MEAN ± SD / AUC0-∞, geometric mean / Cmax / Tmax / Cmax, MEAN ± SD / Cmax, geometric mean / tmax, median and range: single oral dose, Example 1 5 mg, Example 2 7.3 mg; for Cmax / Tmax: male, human, plasma, po, 5 mg; for Tmax: read-out: tmax, median and range
Experimental: Healthy volunteers in this study will be males 18 years of age or older in order to assess the comparative bioavailability of compound of Example 2 versus compound of Example 1, under fasting conditions and to investigate the effect of a high fat, high calorie meal. Compounds will be administered orally in single dose of Example 1 (5 mg) and Example 2 (7.3 mg). The study will have a randomized, open-label, four-fold crossover design.
In order to determine comparative bioavailability AUC0-t (AUC0-t: Area under the plasma concentration-time curve from time 0 h to the last measurable concentration) and Cmax (Cmax: Observed maximum plasma concentration (peak exposure)) will be determined after each administration.
16 volunteers were included in the study. […] Therefore, all the data were included in all pharmacokinetic measurements and calculations, without any adjustment.

[5] = Crystalline stability under accelerated storage conditions (40° C., 75±5 RH %), XRPD; format: physicochemical; conditions: for Stability, 1 week / Stability, 2 weeks / Stability, 3 weeks / Stability, 4 weeks: 40° C., 75±5 RH %, XRPD; for Stability under forced conditions (one week) and in 4-weeks stability assay: crystallinity, colour, aspect
Experimental: Crystalline stability study was performed under accelerated stability conditions (40° C., 75±5 RH %) for one week. A sample of each form stored on a XRPD silicon holder was exposed in a climatic chamber. It is worth noting that these conditions are very drastic because the high surface exposed to the storage conditions might favour possible crystalline conversion. The samples were periodically analysed by XRPD to observe possible transformation.
Additional crystalline stability study was performed under accelerated stability conditions (40° C., 75±5 RH %). Cocrystal samples were stored in an open vial and exposed in a climate chamber maintaining the conditions set with accuracy (40° C.-75% RH ±5 RH). These samples were analysed weekly for 1 month.
The stability of the cocrystalline forms of (1R,3S)-3-(5-cyano-4-phenyl-1,3-thiazol ylcarbamoyl) cyclopentane carboxylic acid were studied under accelerated storage conditions (40° C., 75±5 RH %) for one to four week. See results in Table 5.
After time exposure, cocrystals remained stable according to XRPD analysis. Amorphization or appearance of crystalline forms was not detected in the limit of detection of the analysis conditions.

[6] = Fed (high fat, high calorie meal)

Row | Compound | F % (bioavailability) [1] [%] | AUClast ([1]; po, 5 mg/Kg) [ng·h/mL] | Cmax ([1]; po, 5 mg/Kg) [ng/mL] | moisture content, 15% RH [2] | moisture content, 35% RH [2] | moisture content, 55% RH [2] | moisture content, 75% RH [2] | variation in the moisture content [2] [%] | Stability, 1 week [5] | Stability, 2 weeks [5] | Stability, 3 weeks [5] | Stability, 4 weeks [5] | Stability under forced conditions (one week) and in 4-weeks stability assay [5] | other results
1 | N#Cc1sc(NC(=O)[C@H]2CC[C@@H](C(=O)O)C2)nc1-c1ccccc1.NC(=O)c1cccnc1 [Example 4, cocrystal of (1R,3S)-3-(5-cyano-4-phenyl-1,3-thiazol-2-ylcarbamoyl) cyclopentane carboxylic acid and nicotinamide] | – | – | – | 0.029 | 0.066 | 0.165 | 0.4584 | – | stable | stable | stable | stable | no crystallinity changes, colour or any other change in the aspect were observed | Hygroscopicity compared with the free acid ([2]; range between 5-70% RH): less hygroscopicity than the free acid
2 | O=C(O)c1cc(O)ccc1O [Gentisic acid, 2,5-dihydroxybenzoic acid] | – | – | – | – | – | – | – | – | – | – | – | – | – | pKa conjugated base ([3]; cocrystal forming compound): Not basic
3 | NC(=O)c1cccnc1 [Nicotinamide, 3-pyridinecarboxamide] | – | – | – | – | – | – | – | – | – | – | – | – | – | ΔpKa ([3]; between the free acid (pKa 4.3) and the cocrystal forming compound): 0.9; pKa ([3]; cocrystal forming compound, read-out: pKa conjugated base): 3.4
4 | NC(N)=O [Urea, urea] | – | – | – | – | – | – | – | – | – | – | – | – | – | pKa conjugated base ([3]; cocrystal forming compound): Not basic

Second part, led by results:

Row | F % (bioavailability) [1] [%] | AUClast ([1]; po, 5 mg/Kg) [ng·h/mL] | Cmax ([1]; po, 5 mg/Kg) [ng/mL] | moisture content, 15% RH [2] | moisture content, 35% RH [2] | moisture content, 55% RH [2] | moisture content, 75% RH [2] | variation in the moisture content [2] [%] | Stability, 1 week [5] | Stability, 2 weeks [5] | Stability, 3 weeks [5] | Stability, 4 weeks [5] | Compound | Stability under forced conditions (one week) and in 4-weeks stability assay [5] | other results
5 | 47 | 5200.71 | 2012 | 0.0168 | 0.1842 | 0.3008 | 0.4369 | 0.43 | – | – | – | – | N#Cc1sc(NC(=O)[C@H]2CC[C@@H](C(=O)O)C2)nc1-c1ccccc1 [Example 1, (1R,3S)-3-(5-cyano-4-phenyl-1,3-thiazol-2-ylcarbamoyl) cyclopentane carboxylic acid] | – | pKa ([3]; free acid, read-out: pKa): 4.3; AUC0-t, MEAN ± SD ([4]; Fasting): 1155.0 ± 567.8 ng/mLxh; AUC0-t, geometric mean ([4]; Fasting): (1052.8) ng/mLxh; AUC0-∞, MEAN ± SD ([4]; Fasting): 1257.2 ± 661.9 ng/mLxh; AUC0-∞, geometric mean ([4]; Fasting): (1132.2) ng/mLxh; AUC0-t, MEAN ± SD [4, 6]: 588.1 ± 160.9 ng/mLxh; AUC0-t, geometric mean [4, 6]: (567.9) ng/mLxh; AUC0-∞, MEAN ± SD [4, 6]: 657.9 ± 191.4 ng/mLxh; AUC0-∞, geometric mean [4, 6]: (632.7) ng/mLxh; Cmax ([4]; Fasting, read-out: Cmax, MEAN ± SD): 187 ± 71.6 ng/mL; Cmax ([4]; Fasting, read-out: Cmax, geometric mean): 176 ng/mL; Tmax ([4]; Fasting): 2.5 h; Cmax ([4]; Fed (high fat, high calorie meal), read-out: Cmax, MEAN ± SD): 68 ng/mL; Cmax ([4]; Fed (high fat, high calorie meal), read-out: Cmax, geometric mean): 65.6 ng/mL; Tmax [4, 6]: 7 h
6 | 100 | 16502.48 | 8642.28 | 0.0079 | 0.0175 | 0.0398 | 0.1035 | 0.10 | stable | stable | stable | stable | N#Cc1sc(NC(=O)[C@H]2CC[C@@H](C(=O)O)C2)nc1-c1ccccc1.O=C(O)c1cc(O)ccc1O [Example 2, cocrystal of (1R,3S)-3-(5-cyano-4-phenyl-1,3-thiazol-2-ylcarbamoyl) cyclopentane carboxylic acid and gentisic acid] | no crystallinity changes, colour or any other change in the aspect were observed | AUClast ([1]; iv, 1 mg/Kg): 3304.55 ng·h/mL; Clearance ([1]; iv, 1 mg/Kg): 5.03 mL/min/kg; Hygroscopicity compared with the free acid ([2]; usual storage conditions of drugs (<75% RH), up to 75% RH, listed as cocrystal with gentisic acid): less hygroscopic than free acid; Hygroscopicity compared with the free acid ([2]; usual storage conditions of drugs (<75% RH), up to 75% RH, listed as gentisic acid cocrystal): less hygroscopicity than the free acid; AUC0-t, MEAN ± SD ([4]; Fasting): 1138.5 ± 451.1 ng/mLxh; AUC0-t, geometric mean ([4]; Fasting): (1071.4) ng/mLxh; AUC0-∞, MEAN ± SD ([4]; Fasting): 1216.5 ± 483.3 ng/mLxh; AUC0-∞, geometric mean ([4]; Fasting): (1141.7) ng/mLxh; Cmax, MEAN ± SD ([4]; Fasting): 173.7 ± 60.7 ng/mL; Cmax, geometric mean ([4]; Fasting): (165.8) ng/mL; tmax, median and range ([4]; Fasting): 2.25 (1.5-5.0) h; AUC0-t, MEAN ± SD [4, 6]: 599.1 ± 132.1 ng/mLxh; AUC0-t, geometric mean [4, 6]: (585.9) ng/mLxh; AUC0-∞, MEAN ± SD [4, 6]: 675.0 ± 158.8 ng/mLxh; AUC0-∞, geometric mean [4, 6]: (659.1) ng/mLxh; Cmax, MEAN ± SD [4, 6]: 73.6 ± 25.1 ng/mL; Cmax, geometric mean [4, 6]: (69.8) ng/mL; tmax, median and range [4, 6]: 7.0 (5.0-7.0) h; Cmax compared with Example 1 ([4]; administered after a high fat meal): slightly higher
7 | 100 | 19238.03 | 10227.47 | 0.015 | 0.0339 | 0.0545 | 0.0895 | 0.08 | stable | stable | stable | stable | N#Cc1sc(NC(=O)[C@H]2CC[C@@H](C(=O)O)C2)nc1-c1ccccc1.NC(N)=O [Example 3, cocrystal of (1R,3S)-3-(5-cyano-4-phenyl-1,3-thiazol-2-ylcarbamoyl) cyclopentane carboxylic acid and urea] | no crystallinity changes, colour or any other change in the aspect were observed | AUClast ([1]; iv, 1 mg/Kg): 2714.55 ng·h/mL; Clearance ([1]; iv, 1 mg/Kg): 6.12 mL/min/kg; Hygroscopicity compared with the free acid ([2]; usual storage conditions of drugs (<75% RH), up to 75% RH, listed as cocrystal with urea): less hygroscopic than free acid; Hygroscopicity compared with the free acid ([2]; usual storage conditions of drugs (<75% RH), up to 75% RH, listed as urea cocrystal): less hygroscopicity than the free acid
